Values quoted from earlier work in patent US20040259899A1, “Combination therapy for constipation” (priority 2003, published 2004).

Settings: white crystalline powder as provided (Mallinckrodt Pharmaceuticals)

C[N@+]1(CC2CC2)CC[C@]23c4c5ccc(O)c4O[C@H]2C(=O)CC[C@@]3(O)[C@H]1C5 [Methylnaltrexone, N-cyclopropylmethylnoroxy-morphine-methobromide]
solubility in water: freely soluble
